This passage reports EC50, inhibition and CC50 results from patent US9790207B2, “Pan-genomic inhibitors of NS5A protein encoded by HCV, pharmaceutical compositions, intermediates for inhibitor synthesis, and their synthesis and application methods” (priority 2015, dated 2017).

Where a name gives a salt, the structure may show the parent alone. Read-outs that look alike come from different tables or passages of the source.

Data set [1] concerns HCV gT1b replicon. As to the kind of experiment: HCV replicon assay, gT1b. It is filed as cell-based, Hepatitis C virus (HCV). The settings on record: Hepatitis C virus, GT1B, Huh-7, Huh7 replicon cells, mean value. Here is the method: The HCV replicon assay was used to determine the antiviral activity of compounds of general formula 2 (test compounds). The test cell line used in the HCV Replicon Assay was the human hepatoma cell line Huh7 incorporating the HCV replicons synthesized by an outside vendor.
96-well plates were seeded with cells at a density of 7.5×10^3 cells per well in 50 μl of assay media. The compound stock solution was made up freshly in an assay medium (DMEM 1×, Cellgro; cat. #10-013-CV) as a 2× stock. A total of 11 serial 3-fold dilutions of test compounds were prepared from the 2× stock in the assay media ranging from 20 nM-0.2 pM final concentrations. At least 4 hours after seeding the cells, compound treatment was initiated by adding 50 μl of compound dilution to the plates. The final concentrations of compound therefore ranged from 10 nM to 0.1 pM when diluted 1:1 in culture media. The final DMSO concentration was 0.5%. Cells and inhibitors were incubated for 3 days at 37° C./5% CO2. The media was removed from the plates by gentle tapping. The cells were fixed with 100 μl 1:1 acetone:methanol for 1 minute, washed three times with PBS buffer, and then blocked with 150 μl/well 10% Fetal Bovine Serum (FBS) in PBS for 1 hour at room temperature. The cells were then washed three times with PBS buffer and incubated with 100 μl/well anti-hepatitis C core mAb (Affinity BioReagents; cat. # MA1-080, 1 mg/ml stock diluted 1:4,000 in 10% FBS-PBS) for 2 hours at 37° C. Then, the cells were washed three times with PBS and incubated with 100 μl/well HRP-Goat Anti-Mouse antibody (diluted 1:3.500 in 10% FBS-PBS) for 1 hour at 37° C. The cells were then washed three times with PBS and developed with an OPD solution, 100 μl/well (1 OPD tablet+12 ml citrate/phosphate buffer+5 μl 30% H2O2 per plate), for 30 minutes in the dark at room temperature. The reaction was stopped with 2N H2SO4 (100 μl/well), and the absorbance was measured at A490 X on a Victor^3 V 1420 multilabel counter (Perkin Elmer).

A short description of data set [2]: Cytotoxicity, cell viability by ATPLite Kit. The class given is cell-based, human. The settings on record: human, 10% FBS; for inhibition at 96 h: Huh7 cells (human hepatoma cell line), maximal inhibition, read-out: Cytotox gT1b 10% FBS max. inh. As for the experimental part:
The cytotoxicity of the test compounds was studied in parallel using the same cell line, Huh7. Cell viability was determined using the ATPLite Kit (Perkin-Elmer, Boston, USA), according to manufacturer's instructions. 96-well black/transparent bottom plates were seeded with cells at a density of 7.5×10^3 cells per well in 50 μl medium. After 18 hours, compound treatment was initiated by adding 50 μl of compound dilution into the plates. Each compound dilution was tested in triplicates. The cells and inhibitors were then incubated for 96 hours at 37° C./5% CO2. The plates were washed twice with PBS (0.2 ml/well), and then lysed by adding lysis buffer, 0.05 ml/well (all reagents were included with the ATPLite Kit). After rocking for 5 min on a rocking platform, substrate buffer was added (0.05 ml/well). After additional 5-min incubation, the plates were kept in dark for 10 min, and the luminescence was read using TopCount NXT (Packard, Perkin Elmer). CC50 values for all test compounds were determined using XLfit 4.1 software (Table 2).

The mark [3] stands for this setting: 10% FBS, read-out: gT1b 10% FBS, EC50 (pM) mean.
Setting [4] is: 40% NHS, read-out: gT1b 40% NHS, EC50 (pM) mean.

In the case of `COC(=O)N[C@H](C(=O)N1CCC[C@H]1c1ncc(C#CC#Cc2ccc(-c3cnc([C@@H]4CCCN4C(=O)[C@@H](NC(=O)OC)C(C)C)[nH]3)cc2-c2ccccc2)[nH]1)C(C)C` [2(1)•2HCl, [(S)-1-((S)-2-{5-[4-(5-{2-[(S)-1-((S)-2-Methoxycarbonylamino-3-methyl-butyryl)-pyrrolidin-2-yl]-3H-imidazol-4-yl}-biphenyl-2-yl)-buta-1,3-diynyl]-1H-imidazol-2-yl}-pyrrolidine-1-carbonyl)-2-methyl-propyl]-carbamic acid methyl ester dihydrochloride], the half-maximal effective concentration (EC50) in data set [1] (setting [3]) was determined as 1.79 pM; in data set [1] (setting [4]), 12.4 pM. Besides, in data set [2], the inhibition at 96 h was 42%.
For `COC(=O)N[C@H](C(=O)N1CCC[C@H]1c1ncc(C#CC#Cc2ccc(-c3cnc([C@@H]4CCCN4C(=O)[C@@H](NC(=O)OC)C(C)C)[nH]3)cc2-c2cccc(C(C)(C)C)c2)[nH]1)C(C)C` [2(2)•2HCl, [(S)-1-((S)-2-{5-[4-(3′-tert-Butyl-5-{2-[(S)-1-((S)-2-methoxycarbonylamino-3-methyl-butyryl)-pyrrolidin-2-yl]-3H-imidazol-4-yl}-biphenyl-2-yl)-buta-1,3-diynyl]-1H-imidazol-2-yl}-pyrrolidine-1-carbonyl)-2-methyl-propyl]-carbamic acid methyl ester dihydrochloride], the EC50 in data set [1] (setting [3]) is 1.67 pM; in data set [1] (setting [4]), 6.6 pM. Further, the inhibition at 96 h in data set [2] was found to be 38%.
`COC(=O)N[C@H](C(=O)N1CCC[C@H]1c1ncc(C#CC#Cc2ccc(-c3cnc([C@@H]4CCCN4C(=O)[C@@H](NC(=O)OC)C(C)C)[nH]3)cc2-c2cccc(-c3ccccc3)c2)[nH]1)C(C)C` [2(3)•2HCl, [(S)-1-((S)-2-{5-[4-(5-{2-[(S)-1-((S)-2-Methoxycarbonylamino-3-methyl-butyryl)-pyrrolidin-2-yl]-3H-imidazol-4-yl}-[1,1′; 3′,1″]terphenyl-2-yl)-buta-1,3-diynyl]-1H-imidazol-2-yl}-pyrrolidine-1-carbonyl)-2-methyl-propyl]-carbamic acid methyl ester dihydrochloride]: the figures for the half-maximal effective concentration (EC50) in data set [1] (setting [3]) and in data set [1] (setting [4]) were 1.24 pM and 17.1 pM, respectively. In data set [2], the inhibition at 96 h came out at 29%.
For `COC(=O)N[C@H](C(=O)N1CCC[C@H]1c1ncc(C#CC#Cc2ccc(-c3cnc([C@@H]4CCCN4C(=O)[C@@H](NC(=O)OC)C(C)C)[nH]3)cc2-c2ccc3ccccc3c2)[nH]1)C(C)C` [2(4)•2HCl, [(S)-1-((S)-2-{5-[4-(4-{2-[(S)-1-((S)-2-Methoxycarbonylamino-3-methyl-butyryl)-pyrrolidin-2-yl]-3H-imidazol-4-yl}-2-naphthalen-2-yl-phenyl)-buta-1,3-diynyl]-1H-imidazol-2-yl}-pyrrolidine-1-carbonyl)-2-methyl-propyl]-carbamic acid methyl ester dihydrochloride], in that order: 1.56 pM, 16.3 pM and 31%.
For `COC(=O)N[C@H](C(=O)N1CCC[C@H]1c1ncc(-c2ccc(C#CC#Cc3cnc([C@@H]4CCCN4C(=O)[C@H](NC(=O)OC)c4ccccc4)[nH]3)c(-c3cccc(C(C)(C)C)c3)c2)[nH]1)C(C)C` [2(10)•2HCl, [(S)-1-((S)-2-{5-[3′-tert-Butyl-6-(4-{2-[(S)-1-((R)-2-methoxycarbonylamino-2-phenyl-acetyl)-pyrrolidin-2-yl]-3H-imidazol-4-yl}-buta-1,3-diynyl)-biphenyl-3-yl]-1H-imidazol-2-yl}-pyrrolidine-1-carbonyl)-2-methyl-propyl]-carbamic acid methyl ester dihydrochloride], the 50% effective concentration (EC50) was 1.22 pM in data set [1] (setting [3]) and 8.13 pM in data set [1] (setting [4]). The inhibition at 96 h in data set [2] is 37%.
In the case of `COC(=O)N[C@H](C(=O)N1CCC[C@H]1c1ncc(-c2ccc(C#CC#Cc3cnc([C@@H]4CCCN4C(=O)[C@H](NC(=O)OC)c4ccccc4)[nH]3)c(-c3ccc(C(C)(C)C)cc3)c2)[nH]1)C(C)C` [2(11)•2HCl, [(S)-1-((S)-2-{5-[4′-tert-Butyl-6-(4-{2-[(S)-1-((R)-2-methoxycarbonylamino-2-phenyl-acetyl)-pyrrolidin-2-yl]-3H-imidazol-4-yl}-buta-1,3-diynyl)-biphenyl-3-yl]-1H-imidazol-2-yl}-pyrrolidine-1-carbonyl)-2-methyl-propyl]-carbamic acid methyl ester dihydrochloride], the values for the EC50 in data set [1] (setting [3]) and in data set [1] (setting [4]) were 1.24 pM and 10.7 pM, respectively. Moreover, in data set [2], the inhibition at 96 h was found to be 29%.
With `COC(=O)N[C@H](C(=O)N1CCC[C@H]1c1ncc(-c2ccc(C#CC#Cc3cnc([C@@H]4CCCN4C(=O)[C@H](NC(=O)OC)c4ccccc4)[nH]3)c(-c3cccc(-c4ccccc4)c3)c2)[nH]1)C(C)C` [2(12)•2HCl, [(S)-1-((S)-2-{5-[6-(4-{2-[(S)-1-((R)-2-Methoxycarbonylamino-2-phenyl-acetyl)-pyrrolidin-2-yl]-3H-imidazol-4-yl}-buta-1,3-diynyl)-[1,1′;3′,1″]terphenyl-3-yl]-1H-imidazol-2-yl}-pyrrolidine-1-carbonyl)-2-methyl-propyl]-carbamic acid methyl ester dihydrochloride], the EC50 is 1.79 pM in data set [1] (setting [3]) and 13.4 pM in data set [1] (setting [4]). The inhibition at 96 h in data set [2] turned out to be 29%.
Regarding `COC(=O)N[C@H](C(=O)N1CCC[C@H]1c1ncc(-c2ccc(C#CC#Cc3cnc([C@@H]4CCCN4C(=O)[C@H](NC(=O)OC)c4ccccc4)[nH]3)c(-c3ccc(-c4ccccc4)cc3)c2)[nH]1)C(C)C` [2(13)•2HCl, [(S)-1-((S)-2-{5-[6-(4-{2-[(S)-1-((R)-2-Methoxycarbonylamino-2-phenyl-acetyl)-pyrrolidin-2-yl]-3H-imidazol-4-yl}-buta-1,3-diynyl)-[1,1′;4′,1″]terphenyl-3-yl]-1H-imidazol-2-yl}-pyrrolidine-1-carbonyl)-2-methyl-propyl]-carbamic acid methyl ester dihydrochloride], the figures for the 50% effective concentration (EC50) in data set [1] (setting [3]) and in data set [1] (setting [4]) were 1.61 pM and 14.4 pM, respectively. For the same molecule, in data set [2], the inhibition at 96 h is 24%.
With `COC(=O)N[C@H](C(=O)N1CCC[C@H]1c1ncc(-c2ccc(C#CC#Cc3cnc([C@@H]4CCCN4C(=O)[C@H](NC(=O)OC)c4ccccc4)[nH]3)c(-c3ccc(N4CCN(C)CC4)cc3)c2)[nH]1)C(C)C` [2(15)•2HCl, [(S)-1-((S)-2-{5-[4′-(4-Methyl-piperazin-1-yl)-6-(4-{2-[(S)-1-((R)-2-methoxycarbonylamino-2-phenyl-acetyl)-pyrrolidin-2-yl]-3H-imidazol-4-yl}-buta-1,3-diynyl)-biphenyl-3-yl]-1H-imidazol-2-yl}-pyrrolidine-1-carbonyl)-2-methyl-propyl]-carbamic acid methyl ester tetrahydrochloride], the EC50 came out at 3.65 pM in data set [1] (setting [3]) and 23.9 pM in data set [1] (setting [4]). Besides, in data set [2], the inhibition at 96 h was determined as 82%. Besides, the CC50 at 96 h in data set [2] (Huh7 human hepatoma cells, read-out: Cytotox gT1b 10% FBS CC50) was 16200 nM.
Consider `COC(=O)N[C@H](C(=O)N1CCC[C@H]1c1ncc(-c2ccc(C#CC#Cc3cnc([C@@H]4CCCN4C(=O)[C@H](NC(=O)OC)c4ccccc4)[nH]3)c(-c3cccnc3)c2)[nH]1)C(C)C` [2(16)•2HCl, [(S)-1-((S)-2-{5-[4-(4-{2-[(S)-1-((R)-2-Methoxycarbonylamino-2-phenyl-acetyl)-pyrrolidin-2-yl]-3H-imidazol-4-yl}-buta-1,3-diynyl)-3-pyridin-3-yl-phenyl]-1H-imidazol-2-yl}-pyrrolidine-1-carbonyl)-2-methyl-propyl]-carbamic acid methyl ester trihydrochloride], for which the concentration giving a half-maximal response (EC50) in data set [1] (setting [3]) turned out to be 4.7 pM; in data set [1] (setting [4]) it was 36.2 pM. Moreover, in data set [2], the inhibition at 96 h turned out to be 32%.
